Reference: patent US9469650B2, “Melampomagnolide B derivatives” (BOARD OF TRUSTEES OF THE UNIVERSITY OF ARKANSAS, priority 2013, dated 2016)
Read-outs that look alike come from different tables or passages of the source.

Experiments:
SK-OV-3 = test: panel of 60 human tumor cell lines, growth inhibition (Ovarian Cancer); details: Homo sapiens
ACHN = test: panel of 60 human tumor cell lines, growth inhibition (Renal Cancer); details: Homo sapiens
NCI-H522 = test: panel of 60 human tumor cell lines, growth inhibition (Non-Small Cell Lung Cancer); details: Homo sapiens
NCI-H226 = test: panel of 60 human tumor cell lines, growth inhibition (Non-Small Cell Lung Cancer); details: Homo sapiens
U251 = test: panel of 60 human tumor cell lines, growth inhibition (CNS Cancer); details: Homo sapiens
SNB-19 = test: as above; details: Homo sapiens
NCI-H460 = test: panel of 60 human tumor cell lines, growth inhibition (Non-Small Cell Lung Cancer); details: Homo sapiens
HOP-62 = test: as above; details: Homo sapiens
IGROV1 = test: panel of 60 human tumor cell lines, growth inhibition (Ovarian Cancer); details: Homo sapiens
TK-10 = test: panel of 60 human tumor cell lines, growth inhibition (Renal Cancer); details: Homo sapiens
DU-145 = test: panel of 60 human tumor cell lines, growth inhibition (Prostate Cancer); details: Homo sapiens
786-0 = test: panel of 60 human tumor cell lines, growth inhibition (Renal Cancer); details: Homo sapiens
HS 578T = test: panel of 60 human tumor cell lines, growth inhibition (Breast Cancer); details: Homo sapiens, Hs-578T
HCC-2998 = test: panel of 60 human tumor cell lines, growth inhibition (Colon Cancer); details: Homo sapiens
NCI-H23 = test: panel of 60 human tumor cell lines, growth inhibition (Non-Small Cell Lung Cancer); details: Homo sapiens
SF-295 = test: panel of 60 human tumor cell lines, growth inhibition (CNS Cancer); details: Homo sapiens
BT-549 = test: panel of 60 human tumor cell lines, growth inhibition (Breast Cancer); details: Homo sapiens

SMILES: C=C1C(=O)O[C@H]2[C@H]1CC/C(COC(=O)OCCCN1CCCCC1)=C\CC[C@@]1(C)O[C@@H]21 [JVM 2-26]
- GI50 (SK-OV-3; SK-OV-3): 21 µM
- CC50 (SK-OV-3; SK-OV-3, read-out: LC50): > 100 µM
- IC (TGI) (SK-OV-3; SK-OV-3, read-out: TGI): 53.7 µM
- GI50 (ACHN): 2.14 µM
- CC50 (ACHN; read-out: LC50): 31.5 µM
- IC (TGI) (ACHN; read-out: TGI): 8.06 µM
- GI50 (NCI-H522; NCI-H522): 1.41 µM
- CC50 (NCI-H522; NCI-H522, read-out: LC50): 7.24 µM
- IC (TGI) (NCI-H522; NCI-H522, read-out: TGI): 3.2 µM
- Percent Growth (HL-60(TB); Log10 Concentration −4.0): −50%
- Percent Growth (HL-60(TB); Log10 Concentration −5.0): −10%
- Percent Growth (HL-60(TB); Log10 Concentration −6.0): 73%
- Percent Growth (HL-60(TB); Log10 Concentration −7.0): 64%
- Percent Growth (HL-60(TB); Log10 Concentration −8.0): 93%
- GI50 (NCI-H226; NCI-H226): 4.43 µM
- CC50 (NCI-H226; NCI-H226, read-out: LC50): 79.8 µM
- GI50 (U251; U-251): 16.7 µM
- CC50 (U251; U-251, read-out: LC50): 62.7 µM
- IC (TGI) (U251; U-251, read-out: TGI): 32.4 µM
- GI50 (SNB-19; SNB-19): 13.5 µM
- CC50 (SNB-19; SNB-19, read-out: LC50): 56.3 µM
- IC (TGI) (SNB-19; SNB-19, read-out: TGI): 27.5 µM
- GI50 (NCI-H460; NCI-H460): 16.7 µM
- CC50 (NCI-H460; NCI-H460, read-out: LC50): 77.5 µM
- IC (TGI) (NCI-H460; NCI-H460, read-out: TGI): 36 µM
- GI50 (HOP-62; HOP-62): 15.3 µM
- CC50 (HOP-62; HOP-62, read-out: LC50): 57.7 µM
- IC (TGI) (HOP-62; HOP-62, read-out: TGI): 19.8 µM
- GI50 (IGROV1; IGROV-1): 13.2 µM
- CC50 (IGROV1; IGROV-1, read-out: LC50): 76.3 µM
- IC (TGI) (IGROV1; IGROV-1, read-out: TGI): 31.7 µM
- GI50 (TK-10; TK-10, TK-10): 2.03 µM
- CC50 (TK-10; TK-10, read-out: LC50): 25.5 µM
- IC (TGI) (TK-10; TK-10, read-out: TGI): 6.82 µM
- GI50 (DU-145; DU-145): 3.19 µM
- CC50 (DU-145; DU-145, read-out: LC50): 35.3 µM
- IC (TGI) (DU-145; DU-145, read-out: TGI): 12.5 µM
- GI50 (786-0; 786-0): 2.48 µM
- CC50 (786-0; 786-0, read-out: LC50): 37.3 µM
- IC (TGI) (786-0; 786-0, read-out: TGI): 11.1 µM
- GI50 (HS 578T): 4.96 µM
- CC50 (HS 578T; read-out: LC50): > 100 µM
- IC (TGI) (HS 578T; read-out: TGI): 26.8 µM
- GI50 (HCC-2998; HCC 2998): 14.4 µM
- CC50 (HCC-2998; HCC 2998, read-out: LC50): 60.1 µM
- IC (TGI) (HCC-2998; HCC 2998, read-out: TGI): 19.4 µM
- GI50 (NCI-H23; NCI-H23): 12.8 µM
- CC50 (NCI-H23; NCI-H23, read-out: LC50): 67.1 µM
- IC (TGI) (NCI-H23; NCI-H23, read-out: TGI): 29.4 µM
- GI50 (SF-295; SF-295): 15.4 µM
- CC50 (SF-295; SF-295, read-out: LC50): 73.2 µM
- IC (TGI) (SF-295; SF-295, read-out: TGI): 33.5 µM
- GI50 (BT-549; BT-549): 3.12 µM
- CC50 (BT-549; BT-549, read-out: LC50): 38.7 µM
- IC (TGI) (BT-549; BT-549, read-out: TGI): 15 µM
